Molecular target: T1, polycystin-2 (Homo sapiens, UniProt Q13563)
T1 construct: expressed in transfected cells
T1 sequence (Q13563 1-968): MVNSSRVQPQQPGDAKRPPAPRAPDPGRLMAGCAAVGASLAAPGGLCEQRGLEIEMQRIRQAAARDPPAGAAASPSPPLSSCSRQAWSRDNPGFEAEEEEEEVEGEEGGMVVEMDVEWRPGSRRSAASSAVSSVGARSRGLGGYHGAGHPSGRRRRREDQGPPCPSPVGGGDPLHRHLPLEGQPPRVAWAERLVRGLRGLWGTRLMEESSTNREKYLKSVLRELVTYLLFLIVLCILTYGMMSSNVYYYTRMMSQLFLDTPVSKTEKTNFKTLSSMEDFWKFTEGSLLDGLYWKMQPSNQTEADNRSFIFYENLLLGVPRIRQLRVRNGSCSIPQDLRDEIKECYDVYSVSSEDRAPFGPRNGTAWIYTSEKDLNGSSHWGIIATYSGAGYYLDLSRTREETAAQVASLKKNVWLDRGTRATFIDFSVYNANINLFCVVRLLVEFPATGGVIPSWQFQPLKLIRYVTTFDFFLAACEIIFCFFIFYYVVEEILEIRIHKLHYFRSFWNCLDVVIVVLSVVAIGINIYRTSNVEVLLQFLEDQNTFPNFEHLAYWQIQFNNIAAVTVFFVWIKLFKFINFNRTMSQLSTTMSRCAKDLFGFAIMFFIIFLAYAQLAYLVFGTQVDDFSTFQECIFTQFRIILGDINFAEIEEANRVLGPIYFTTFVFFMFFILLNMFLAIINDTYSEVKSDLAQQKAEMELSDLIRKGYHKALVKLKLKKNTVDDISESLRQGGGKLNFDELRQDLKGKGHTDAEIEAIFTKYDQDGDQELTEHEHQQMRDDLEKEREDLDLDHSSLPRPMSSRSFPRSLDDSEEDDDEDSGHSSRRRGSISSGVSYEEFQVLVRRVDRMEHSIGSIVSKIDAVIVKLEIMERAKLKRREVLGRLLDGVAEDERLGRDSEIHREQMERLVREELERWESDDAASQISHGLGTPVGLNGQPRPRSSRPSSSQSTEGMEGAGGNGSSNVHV
Type: cell-based
Details: for Effect of external disulfide reducing agents on wild type polycystin-2 current: whole cilia configuration
From the text: Generation of HEK PKD2^Null cells line and the stable expression PKD2 variants. To generate the HEK PKD2^Null cell lines, we used a CRISPR/Cas9 gene editing kit available from Addgene (kit 1000000055). HEK 293 cells were electro-transfected with sgRNAs (caccg[…] and aaac[…]c) with the All-in-one Cas9 plasmid. […] Cells generated from single cell clones were selected after 4 weeks of expansion in a 96-wells plate. […] To generate the WT and variant PKD2 GFP or mCherry C-terminally tagged variant cell lines, the hPKD gene was subcloned into lentiviral pLVX-mcherry-N1 (Clontech) or pLVX-GFP-N1 (Clontech) vector using the Gibson assembly method. A linker encoding for six glycine residues was added between the PKD2 gene and the C-terminal tags, and missense variants were generated using standard, site-directed mutagenesis. The third-generation lentiviral packaging plasmids used for stable expression contained: pMDLg/pRRE (Addgene), […] pRSV-Rev (Addgene), and envelope expressing plasmid pMD2.G (Addgene). LentiX-293T cells (Takara) were transfected with polyethylineimine (Polysciences) at a 4:1:1:1 ratio of the transgene and viral packaging constructs. Supernatants were collected 48 and 72 hours post transfection and filtered through a 0.45 μm syringe filter. Lentiviral supernatant was concentrated 100 times using 1 volume of PEG-it (System Biosciences) virus precipitation solution and 4 volume of lentivirus-containing supernatant. The PEG-it and supernatant mixture were kept at 4 degrees for 24 hours and centrifuged at 1500 rpm for 30 minutes. The pellet containing lentivirus was resuspended with 1/100th volume of PBS of the original supernatant volume. HEK cells were infected with the lentivirus supernatant; PKD2-GFP or PKD2-mCherry expression was selected using culture media containing puromycin (2 μg/ml) for 30 to 90 days. Cells were then fluorescence-activated cell sorted (BD FacsMelody) at 5000 to 10,000 counts per minute to enrich for the transgene expression. Stable cell lines were cultured in Dulbecco's modified essential medium (DMEM) supplemented with 10% fetal bovine serum (FBS) and 100 units/ml penicillin, 100 units/ml streptomycin and 1 μg/ml puromycin selection antibiotic.
Electrophysiology. Ciliary ion currents were recorded using borosilicate glass electrodes polished to resistances of 14-22 MΩ using the cilium patch method previously described^32. Whole cell electrodes used to measure poly cystin-2L1 currents were fire polished to 1.5-4 MΩ resistances. Unless otherwise stated, whole cilia ionic currents were recorded in symmetrical [Na^+]. The pipette standard internal solution contained (in mM): 90 NaMES, 10 NaCl, 10 HEPES, 10 Na4-BAPTA (Glycine, N, N′-[1,2-ethanediylbis(oxy-2,1-phenylene)]bis[N-(carboxymethyl)]-,tetrasodium); pH was adjusted to 7.3 using NaOH. Standard bath solution contained 140 NaCl, 10 HEPES, 1.8 CaCl2); pH 7.4. All solutions were osmotically balanced to 295 (±6) mOsm with mannitol. Extracellular solutions containing TCEP and GSH were used within six hours of formulation. Data were collected using an Axopatch 200B patch clamp amplifier, Digidata 1440A, and pClamp 10 software. Whole-cilium and excised patch currents were digitized at 25 kHz and low-pass filtered at 10 kHz. In the whole cilium configuration, the holding potential was −60 mV and then depolarized using a 400 ms voltage ramp from −100 mV to 100 mV. The whole cell recordings of polycystin-2L1 currents were either activated by the same ramp protocol or by 100 ms depolarizations to 100 mV from a −100 mV holding potential.

Structure (SMILES)	Effect of external disulfide reducing agents on wild type polycystin-2 current	Block of ciliary WT polycystin-2 currents by trivalent ions (10 μM, voltage ramps)
N[C@@H](CCC(=O)N[C@@H](CS)C(=O)NCC(=O)O)C(=O)O [GSH, reduced glutathione]	near instantaneous reduction	–
O=C(O)CCP(CCC(=O)O)CCC(=O)O [TCEP, tris-2-carboxyethyl phosphine]	near instantaneous reduction	–
[Gd] [gadolinium]	–	blocked

Source: patent US20210369677A1, “SMALL MOLECULE ACTIVATORS OF POLYCYSTIN-2 (PKD2) AND USES THEREOF” (Northwestern University, priority 2020, published 2021)
